Results from ChEMBL document CHEMBL1201862, “PubChem BioAssay data set” (2004).
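Compound exposure: 48 hours, 5 concentrations, 96-well plates. GI50 marks 50% less growth.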 Calls of active or inactive are those of the source. Rule as the data show it: active = GI50 up to about 1.1 µM and inactive = higher.

Legend:
Test in all cases: NCI-60 cell line screen, 48 h
786-0 = tested on: 786-0
A498 = tested on: A498
ACHN = tested on: ACHN
HCT-116 = tested on: HCT-116
HOP-92 = tested on: HOP-92
KM12 = tested on: KM12
M14 = tested on: M14
MOLT-4 = tested on: MOLT-4
OVCAR-8 = tested on: OVCAR-8
PC-3 = tested on: PC-3
RXF 393 = tested on: RXF 393
SR = tested on: SR
SW-620 = tested on: SW-620
T47D = tested on: T47D
TK-10 = tested on: TK-10
UACC-62 = tested on: UACC-62
UO-31 = tested on: UO-31
NCI-H522 = tested on: NCI-H522
SNB-19 = tested on: SNB-19
SNB-75 = tested on: SNB-75

Compound | GI50 (786-0) | GI50 (A498) | GI50 (ACHN) | GI50 (HCT-116) | GI50 (HOP-92) | GI50 (KM12) | GI50 (M14) | GI50 (MOLT-4) | GI50 (OVCAR-8) | GI50 (PC-3) | GI50 (RXF 393) | GI50 (SR) | GI50 (SW-620) | GI50 (T47D) | GI50 (TK-10) | GI50 (UACC-62) | GI50 (UO-31) | GI50 (NCI-H522) | GI50 (SNB-19) | GI50 (SNB-75)
CCOC(=O)N1CCC(=C2c3ccc(Cl)cc3CCc3cccnc32)CC1 [LORATADINE] | 15.2 µM (inactive) | 0.849 µM (active) | 4.15 µM (inactive) | 11.2 µM (inactive) | 10 µM (inactive) | 10.6 µM (inactive) | 12.4 µM (inactive) | 4.23 µM (inactive) | 12.7 µM (inactive) | 10.4 µM (inactive) | 6.71 µM (inactive) | 2.64 µM (inactive) | 11.8 µM (inactive) | 13.3 µM (inactive) | 13.2 µM (inactive) | 4.73 µM (inactive) | 1.64 µM (inactive) |  |  | 
CCOC(=O)c1ccc(NCc2ccc3nc(OC)c(OC)nc3c2)cc1 | 94.8 µM (inactive) | > 100 µM (inactive) | > 100 µM (inactive) | 92.3 µM (inactive) | 58.3 µM (inactive) | > 100 µM (inactive) | > 100 µM (inactive) | > 100 µM (inactive) | 84.7 µM (inactive) | > 100 µM (inactive) |  | > 100 µM (inactive) | > 100 µM (inactive) | 57.1 µM (inactive) |  | > 100 µM (inactive) | > 100 µM (inactive) | > 100 µM (inactive) | > 100 µM (inactive) | 33.7 µM (inactive)
Cc1cc(S(=O)(=O)NC2=NNC(C)CN2)c(S)cc1Cl (centres undefined) | 35 µM (inactive) | 21.6 µM (inactive) | 46.1 µM (inactive) | 38.4 µM (inactive) |  | 61.8 µM (inactive) | 27.7 µM (inactive) | 44.2 µM (inactive) | 32.1 µM (inactive) | 63.7 µM (inactive) | 50.9 µM (inactive) | 37.2 µM (inactive) | 32.3 µM (inactive) | 37.8 µM (inactive) | > 100 µM (inactive) | 51.2 µM (inactive) | 51.5 µM (inactive) | 22.3 µM (inactive) | 60 µM (inactive) | 93.5 µM (inactive)
Cc1cc(S(=O)(=O)n2ccnc2Oc2cccc(Cl)c2)c(SSc2cc(Cl)c(C)cc2S(=O)(=O)n2ccnc2Oc2cccc(Cl)c2)cc1Cl | 6.79 µM (inactive) | 12.2 µM (inactive) | 8.36 µM (inactive) | 6.19 µM (inactive) | 4.39 µM (inactive) | 5.66 µM (inactive) | 7.89 µM (inactive) | 4.14 µM (inactive) | 6.59 µM (inactive) | 6.11 µM (inactive) | 3.08 µM (inactive) | 9.06 µM (inactive) | 11.7 µM (inactive) | 2.98 µM (inactive) | 29 µM (inactive) | 5.7 µM (inactive) | 5.96 µM (inactive) |  |  | 7.59 µM (inactive)
CCOC(=O)c1ccc2c(c1)nc1n2C(c2c(F)cccc2F)SC1 (centres undefined) | 23.4 µM (inactive) | > 100 µM (inactive) | 18.3 µM (inactive) | 15.6 µM (inactive) | 40.6 µM (inactive) | 17.1 µM (inactive) | 27.9 µM (inactive) | 26.8 µM (inactive) | 21.6 µM (inactive) | 21.3 µM (inactive) | 51.6 µM (inactive) | 25.6 µM (inactive) | 54.6 µM (inactive) | 12.8 µM (inactive) | 80.9 µM (inactive) | 25.4 µM (inactive) | 29.2 µM (inactive) |  | 12.2 µM (inactive) | 62.5 µM (inactive)
COc1ccc(-c2nc(-c3cc4c(ccc5ccccc54)oc3=O)cs2)cc1 | 33.2 µM (inactive) |  | > 100 µM (inactive) | 59.8 µM (inactive) | > 100 µM (inactive) | > 100 µM (inactive) | > 100 µM (inactive) | > 100 µM (inactive) |  | > 100 µM (inactive) | > 100 µM (inactive) | > 100 µM (inactive) | > 100 µM (inactive) | > 100 µM (inactive) | > 100 µM (inactive) | > 100 µM (inactive) | > 100 µM (inactive) |  | > 100 µM (inactive) | 66.5 µM (inactive)
COC(=O)C1=C(C)NC(C)=C(C(=O)OC)C1c1ccccc1NO | > 100 µM (inactive) | > 100 µM (inactive) | > 100 µM (inactive) | 21.9 µM (inactive) | > 100 µM (inactive) | > 100 µM (inactive) | > 100 µM (inactive) | 27.4 µM (inactive) | > 100 µM (inactive) | > 100 µM (inactive) | > 100 µM (inactive) | 28.4 µM (inactive) | 68.1 µM (inactive) | > 100 µM (inactive) | > 100 µM (inactive) | > 100 µM (inactive) | > 100 µM (inactive) | > 100 µM (inactive) | > 100 µM (inactive) | 
CCOC(=O)c1ccc(C(=O)C(C(C)=O)C(=O)OC(C)(C)C)n1C (centres undefined) | > 100 µM (inactive) | > 100 µM (inactive) | > 100 µM (inactive) | > 100 µM (inactive) |  | > 100 µM (inactive) | > 100 µM (inactive) | 67.5 µM (inactive) | > 100 µM (inactive) | > 100 µM (inactive) | > 100 µM (inactive) | 57.4 µM (inactive) | > 100 µM (inactive) | > 100 µM (inactive) | > 100 µM (inactive) | > 100 µM (inactive) | > 100 µM (inactive) | > 100 µM (inactive) | > 100 µM (inactive) | 78.5 µM (inactive)
Cc1ccc(-n2c(N)c(C#N)c3[nH]nc(N)c3c2=O)cc1 | > 100 µM (inactive) | > 100 µM (inactive) | > 100 µM (inactive) | > 100 µM (inactive) | > 100 µM (inactive) | > 100 µM (inactive) | > 100 µM (inactive) | > 100 µM (inactive) | > 100 µM (inactive) | > 100 µM (inactive) | > 100 µM (inactive) | > 10 µM (inactive) | > 100 µM (inactive) | > 100 µM (inactive) | > 100 µM (inactive) | > 100 µM (inactive) | > 100 µM (inactive) |  | > 100 µM (inactive) | > 100 µM (inactive)
COC(=O)C1C(OC(=O)c2ccccc2)CC2CCC1N2C(N)=O (centres undefined) | > 100 µM (inactive) | > 100 µM (inactive) | > 100 µM (inactive) | > 100 µM (inactive) | > 100 µM (inactive) | > 100 µM (inactive) | > 100 µM (inactive) | > 100 µM (inactive) | > 100 µM (inactive) | > 100 µM (inactive) |  | > 100 µM (inactive) | > 100 µM (inactive) | > 100 µM (inactive) |  | > 100 µM (inactive) | > 100 µM (inactive) | > 100 µM (inactive) | > 100 µM (inactive) | > 100 µM (inactive)
Nc1ccc(/C=C/c2ccc3cccnc3c2)cc1 | > 100 µM (inactive) | > 100 µM (inactive) | 52.5 µM (inactive) | > 100 µM (inactive) | > 100 µM (inactive) | > 100 µM (inactive) | > 100 µM (inactive) | > 100 µM (inactive) | > 100 µM (inactive) | > 100 µM (inactive) | > 100 µM (inactive) | > 100 µM (inactive) | > 100 µM (inactive) | 92.9 µM (inactive) | > 100 µM (inactive) | > 100 µM (inactive) | > 100 µM (inactive) |  | > 100 µM (inactive) | > 100 µM (inactive)
O=C1NC(N2CCCCC2)=N/C1=C\c1ccccc1 | > 100 µM (inactive) |  | > 100 µM (inactive) | > 100 µM (inactive) | > 100 µM (inactive) | > 100 µM (inactive) | > 100 µM (inactive) | > 100 µM (inactive) | > 100 µM (inactive) | > 100 µM (inactive) | > 100 µM (inactive) | > 100 µM (inactive) | > 100 µM (inactive) | > 100 µM (inactive) | > 100 µM (inactive) | > 100 µM (inactive) | > 100 µM (inactive) | > 100 µM (inactive) | > 100 µM (inactive) | > 100 µM (inactive)
CSc1cc(Cl)c(C)cc1S(=O)(=O)NC(=O)NNc1cnc2ccccc2n1 | > 100 µM (inactive) | > 100 µM (inactive) | > 100 µM (inactive) | > 100 µM (inactive) |  | > 100 µM (inactive) | > 100 µM (inactive) | 17.5 µM (inactive) | > 100 µM (inactive) | > 100 µM (inactive) | > 100 µM (inactive) | > 100 µM (inactive) | > 100 µM (inactive) | > 100 µM (inactive) |  |  |  | > 100 µM (inactive) | > 100 µM (inactive) | 
O=C1Oc2ccccc2C(=O)/C1=C/NC(=S)NCCc1ccccc1 | 38.7 µM (inactive) |  | 19.2 µM (inactive) | 33.3 µM (inactive) | 23.7 µM (inactive) | 37.2 µM (inactive) | 55 µM (inactive) | 57.1 µM (inactive) | 29.2 µM (inactive) | 39.8 µM (inactive) | 39.8 µM (inactive) | 14.6 µM (inactive) | 42.6 µM (inactive) | 35.1 µM (inactive) | 32.1 µM (inactive) | 26.9 µM (inactive) | 17.1 µM (inactive) | 23.3 µM (inactive) | 37.7 µM (inactive) | 22.7 µM (inactive)
COC(=O)C1(C(=O)OC)C/C(C)=C(/C)SCCCS1 | > 100 µM (inactive) |  | > 100 µM (inactive) | > 100 µM (inactive) | 49.5 µM (inactive) | > 100 µM (inactive) | > 100 µM (inactive) | 44.4 µM (inactive) | > 100 µM (inactive) | 64.1 µM (inactive) | > 100 µM (inactive) | 81.3 µM (inactive) | > 100 µM (inactive) | > 100 µM (inactive) | > 100 µM (inactive) | > 100 µM (inactive) | > 100 µM (inactive) | > 100 µM (inactive) | > 100 µM (inactive) | 28.4 µM (inactive)
